Test results from PMC9124243 (Cell chemical biology, 2021).

Assays:
[1] = target: full-length apo DnaK (DnaK^FL) (Mycobacterium tuberculosis, UniProt P9WMJ9, T175A); type: binding
[2] = target: Mtb DnaK oligomers and DnaK-GrpE complex (Mycobacterium tuberculosis, UniProt P9WMJ9, T175A); type: binding
DnaK^NBD = type: binding; conditions: ITC
Mtb DnaK mutants [3] = target: Mtb DnaK mutants (Mycobacterium tuberculosis, UniProt P9WMJ9); type: biochemical
Mtb DnaK mutants [4] = target: Mtb DnaK mutants (Mycobacterium tuberculosis, UniProt P9WMJ9, E514A); type: biochemical
Mtb DnaK mutants [5] = target: Mtb DnaK mutants (Mycobacterium tuberculosis, UniProt P9WMJ9, R127A); type: biochemical
[6] = target: apo, ATP-bound or ADP-bound DnaK T175A (Mycobacterium tuberculosis, UniProt P9WMJ9, T175A)
[7] = target: Mtb DnaK Phe400Ala, Thr401Ala (Mycobacterium tuberculosis, UniProt P9WMJ9, F400A); type: binding

CNC(=O)[C@H]1O[C@@H](n2cnc3c(NCc4cccc(I)c4)nc(Cl)nc32)[C@H](O)[C@@H]1O [MECA, 2Cl-IB-MECA]
binding to DnaK alone [1]: does not bind to DnaK alone
DnaK-GrpE complex formation [2]: not affected

CCC[C@H](NC(=O)[C@@H]1[C@H]2CCC[C@H]2CN1C(=O)[C@@H](NC(=O)[C@@H](NC(=O)c1cnccn1)C1CCCCC1)C(C)(C)C)C(=O)C(=O)NC1CC1 [TP, Telaprevir]
stoichiometry TP: DnaK [1]: ~ 0.5
interaction with DnaK^NBD (DnaK^NBD): no interaction
ATPase activity of DnaK lacking last ~110 residues (A513-K625) (Mtb DnaK mutants [3]): still disrupted ATPase activity
increase in the IC50 value compared to wild-type (Mtb DnaK mutants [4]): 1.4 fold
ATPase activity of DnaK Arg127Ala with excess TP (Mtb DnaK mutants [5]): tolerance to excess TP
oligomeric state of apo DnaK [2]: inhibited formation of dimers and higher order oligomers
cleavage of DnaK by proteinase K [6]: protects full-length DnaK from cleavage

FL-β-Ala-Asn-Arg-Leu-Leu-Leu-Thr-Gly-OH [FL-NR]
EC50 for Phe400Ala relative to WT [7]: ~ 40 fold
